Active and inactive are the calls of the source. The calls are words filed in the database; no cut-off is given here.
Legend:
HCT-116 [1] = assay: Induction of cell cycle arrest in human HCT-116 cells assessed as accumulation at G2/M phase at 5 uM incubated for 48 hrs by PI staining based flow cytometry relative to control; assay type: functional
K562 [2] = assay: Induction of spliceosome function impairment in human K562 cells assessed as increase in NCKAP1L RI transcript incubated for 12 hrs by qRT-PCR analysis; assay type: functional, cell-based; conditions: dose 1-10 µM
K562 [3] = assay: Induction of spliceosome function impairment in human K562 cells assessed as decrease in PRPF38A transcript at 1 to 10 uM incubated for 12 hrs by qRT-PCR analysis; assay type: functional, cell-based; conditions: dose 1-10 µM
HCT-116 [4] = assay: Effect on RNA splicing in human HCT-116 cells assessed as ESPL1 gene exon splicing at 2 uM incubated for 12 hrs by RNA-seq analysis; assay type: functional, cell-based
[5] = Competitive inhibition of N-terminal His-tagged RBM39 (146 to 326 residues)/DCAF15 (2 to 600 residues)/full-length DDB1 (1 to 1140 residues)(unknown origin) incubated for 1 hr in presence of (R)-N-(3-(N-(3-Cyano-4-methyl-1H-indol-7-yl)sulfamoyl)phenyl)-2-(2-(((6-(3-(3',6'-dihydroxy-3-oxo-3H-spiro[isobenzofuran-1,9'-xanthen]-5-yl)thioureido)hexyl)amino)methyl)pyrrolidin-1-yl)-2-oxoacetamide by fluorescence polarization assay; set-up: species or system Homo sapiens
K562 [6] = assay: Effect on RNA splicing in human K562 cells assessed as CEP192 gene retention of introns up to 10 uM by PCR analysis; assay type: functional, cell-based; conditions: time 1-24 hrs
HCT-116 [7] = assay: Downregulation of CENPI expression in human HCT-116 cells incubated for 24 hrs by Western blot analysis; assay type: functional, cell-based
K562 [8] = assay: Induction of spliceosome function impairment in human K562 cells assessed as decrease in ZNF207 transcript at 1 to 10 uM incubated for 12 hrs by qRT-PCR analysis; assay type: functional, cell-based; conditions: dose 1-10 µM
HCT-116 [9] = assay: Effect on RNA splicing in human HCT-116 cells assessed as KNL1 gene exon splicing at 2 uM incubated for 12 hrs by RNA-seq analysis; assay type: functional, cell-based
HCT-116 [10] = assay: Effect on RNA splicing in human HCT-116 cells assessed as MCL-1 gene alternative splicing at 2 uM incubated for 12 hrs by RNA-seq analysis; assay type: functional, cell-based
MV4-11 [11] = assay: Induction of spliceosome function impairment in human MV4-11 cells assessed as increase in PRPF38A RI transcript incubated for 12 hrs by qRT-PCR analysis; assay type: functional, cell-based; conditions: dose 1-10 µM
HCT-116 [12] = assay: Antiproliferative activity against human HCT-116 cells incubated for 4 days by CCK8 assay; assay type: functional, cell-based; conditions: HCT-116, 96 h
[13] = Effect on mitosis in human HCT-116 cells assessed as normal mitotic cells at 1 uM incubated for 48 hrs by immunofluorescence based analysis relative to control; assay type: functional
MV4-11 [14] = assay: Induction of spliceosome function impairment in human MV4-11 cells assessed as decrease in PRPF38A transcript at 1 to 10 uM incubated for 12 hrs by qRT-PCR analysis; assay type: functional, cell-based; conditions: dose 1-10 µM
HCT-116 [15] = assay: Induction of apoptosis in human HCT-116 cells assessed as change in caspase-3 level at 0.1 to 5 uM incubated for 48 hrs by Western blot analysis; assay type: functional, cell-based; conditions: dose 0.1-5 µM
K562 [16] = assay: Induction of spliceosome function impairment in human K562 cells assessed as increase in PRPF38A RI transcript incubated for 12 hrs by qRT-PCR analysis; assay type: functional, cell-based; conditions: dose 1-10 µM
HCT-116 [17] = assay: Effect on mitosis in human HCT-116 cells assessed as disorganized spindle phenotype at 1 uM incubated for 48 hrs by immunofluorescence based analysis; assay type: functional, cell-based
HCT-116 [18] = assay: Induction of spliceosome function impairment in human HCT-116 cells assessed as increase in PRPF38A RI transcript at 1 to 10 uM incubated for 12 hrs by qRT-PCR analysis; assay type: functional, cell-based; conditions: dose 1-10 µM
HCT-116 [19] = assay: Induction of spliceosome function impairment in human HCT-116 cells assessed as increase in NCKAP1L RI transcript at 1 to 10 uM incubated for 12 hrs by qRT-PCR analysis; assay type: functional, cell-based; conditions: dose 1-10 µM
K562 [20] = assay: Effect on RNA splicing in human K562 cells assessed as CEP192 gene alternative 3' splicing site at 2 uM incubated for 12 hrs by RNA-seq analysis; assay type: functional, cell-based
MOLM-13 = assay: Antiproliferative activity against human MOLM-13 cells assessed as inhibition of cell growth incubated for 4 days by CCK8 assay; assay type: functional, cell-based; conditions: time 4.0 day
HCT-116 [21] = assay: Induction of cell cycle arrest in human HCT-116 cells assessed as accumulation at G2/M phase at 1 uM incubated for 24 hrs by PI staining based flow cytometry relative to control; assay type: functional
RS4;11 = assay: Induction of RBM39 degradation in human RS4;11 cells incubated for 24 hrs by Western blot analysis; assay type: cell-based
HL-60 [22] = assay: Induction of RBM39 degradation in human HL-60 cells incubated for 24 hrs by Western blot analysis; assay type: cell-based
HCT-116 [23] = assay: Induction of spliceosome function impairment in human HCT-116 cells assessed as fold increase in CUL4A RI transcript at 1 to 10 uM incubated for 12 hrs by qRT-PCR analysis relative to control; assay type: functional; conditions: dose 1-10 µM
HCT-116 [24] = assay: Induction of RBM39 degradation in human HCT-116 cells at 1 uM incubated for 3 to 6 hrs by Western blot analysis; assay type: cell-based; conditions: time 3-6 hrs
HCT-116 [25] = assay: Induction of spliceosome function impairment in human HCT-116 cells assessed as fold increase in PRPF38A RI transcript at 1 to 10 uM incubated for 12 hrs by qRT-PCR analysis relative to control; assay type: functional; conditions: dose 1-10 µM
K562 [26] = assay: Effect on RNA splicing in human K562 cells assessed as CEP192 gene retention of introns incubated for 12 hrs by PCR analysis; assay type: functional, cell-based; conditions: dose 0.1-10 µM
[27] = Effect on RNA splicing in human K562 cells assessed as number of alternative 3' splice sites at 2 uM incubated for 12 hrs by RNA-seq analysis; assay type: functional
MV4-11 [28] = assay: Effect on RNA splicing in human MV4-11 cells assessed as CEP192 gene retention of introns incubated for 12 hrs by PCR analysis; assay type: functional, cell-based; conditions: dose 0.1-10 µM
HCT-116 [29] = assay: Induction of cell cycle arrest in human HCT-116 cells assessed as accumulation at G2/M phase at 1 uM incubated for 48 hrs by PI staining based flow cytometry relative to control; assay type: functional
RS4-11 = assay: Antiproliferative activity against human RS4;11 cells assessed as inhibition of cell growth incubated for 4 days by CCK8 assay; assay type: functional, cell-based; conditions: time 4.0 day
[30] = AUC (0 to t) in ICR mouse at 15 mg/kg, po; assay type: ADME, organism-based; conditions: in vivo
HL-60 [31] = assay: Effect on RNA splicing in human HL-60 cells assessed as CEP192 gene skipping exons incubated for 12 hrs by PCR analysis; assay type: functional, cell-based; conditions: dose 0.1-10 µM
[32] = Effect on RNA splicing in human K562 cells assessed as number of mutually exclusive exons at 2 uM incubated for 12 hrs by RNA-seq analysis; assay type: functional
[33] = Effect on RNA splicing in human K562 cells assessed as number of alternative 5' splice sites at 2 uM incubated for 12 hrs by RNA-seq analysis; assay type: functional
CEM/C1 = assay: Induction of RBM39 degradation in human CEM/C1 cells incubated for 24 hrs by Western blot analysis; assay type: cell-based

Compound	Activity (HCT-116 [1])	Activity (K562 [2])	Activity (K562 [3])	Activity (HCT-116 [4])	IC50 [5]	Activity (K562 [6])	Activity (HCT-116 [7])	Activity (K562 [8])	Activity (HCT-116 [9])	Activity (HCT-116 [10])	Activity (MV4-11 [11])	IC50 (HCT-116 [12])	Activity [13]	Activity (MV4-11 [14])	Activity (HCT-116 [15])	Activity (K562 [16])	Activity (HCT-116 [17])	Activity (K562 [20])	further results
NS(=O)(=O)c1ccc(S(=O)(=O)Nc2cccc3c(Cl)c[nH]c23)cc1 [INDISULAM]	55%	Active	Active	Active	417 nM	Time-dependent-effect; Observed Retention Of Introns Between Exons 27 And 28	Dose-dependent-effect	Active	Active	No effect	Active	96.8 nM	1.4%	Active	inactive	Active	Active; Disorganized Spindle Phenotype Was Characterized By Random Microtubule Distribution Surrounding Condensed And Undivided Chromosomes	Active	Activity (HCT-116 [18]): Active; Activity (HCT-116 [19]): Active
Cc1ccc(NS(=O)(=O)c2cccc(NC(=O)C(=O)N3CCC[C@@H]3CO)c2)c2[nH]cc(C#N)c12	60%	Active	Active	Active	594 nM	Time-dependent-effect; Observed Retention Of Introns Between Exons 27 And 28	Dose-dependent-effect	Active	Active	No effect	Active	36.7 nM	0.8%	Active	inactive	Active	Active; Disorganized Spindle Phenotype Was Characterized By Random Microtubule Distribution Surrounding Condensed And Undivided Chromosomes	Active	inhibition (MOLM-13): Active; Activity (HCT-116 [21]): 33%; Activity (RS4;11): Dose-dependent-effect; Activity (HL-60 [22]): Dose-dependent-effect; fold change (FC) (HCT-116 [23]): 3; Activity (HCT-116 [24]): Active; Compound Exhibited Its Efficiency Steadily Increasing From 3 To 48 Hrs; fold change (FC) (HCT-116 [25]): 3; Activity (K562 [26]): Dose-dependent-effect; Observed Retention Of Introns Between Exons 27 And 28; Activity [27]: 1232; Activity (MV4-11 [28]): Dose-dependent-effect; Observed Retention Of Introns Between Exons 27 And 28; Activity (HCT-116 [29]): 58%; inhibition (RS4-11): Active; AUC(0-t) [30]: 3480 ng·h/mL; Activity (HL-60 [31]): Dose-dependent-effect; Observed Skipping Of Exons 42, 28 And 13; Activity [32]: 1801; Activity [33]: 633; Activity (CEM/C1): Dose-dependent-effect

— ChEMBL document CHEMBL6109117, “Synthesis of an RBM39 Degrader That Downregulates CEP192 and Induces Disorganized Spindle Structures” (J Med Chem, 2025)
